Results taken from US11707440B2 (priority 2017, dated 2023).
Like-named read-outs stand apart in the source and are kept apart here.

What was measured:
[1] = tested on: subjects with MDD at imminent risk for suicide
[2] = tested on: subjects with MDD at imminent risk for suicide; assay: Beck Scale for Suicidal Ideation (BSS), […]2001; type: in vivo, human; conditions: for BSS total score change, Diff. of LS Means (SE) minus placebo: ANCOVA LOCF
Description: The BSS is a 21-item self-reported instrument to detect and measure the severity of suicidal ideation in adults and adolescents aged 17 years and older. The BSS total score represents the severity of suicide ideation, and it is calculated by summing the ratings of the first 19 items; the total score ranges from 0 to 38, with a higher score representing greater suicide ideation. Increasing scores reflect increases in suicidal risk.

[3] = tested on: subjects with MDD at imminent risk for suicide; assay: Sustained response, response and remission based on MADRS, […]2001; type: in vivo, human; conditions: at least 50 percent reduction from baseline with onset on Day 1 maintained through Day 25; ITT analysis set
Excerpt: • a. Changes from baseline to Day 2 and Day 25 for the MADRS total score • b. Changes from baseline to Day 1 4-hours postdose, Day 2 and Day 25 for the MADRS Suicide Item • c. Changes from baseline to Day 1 4-hours postdose, Day 2, and Day 25 for the clinical global judgment of suicide risk from the Suicide Ideation and Behavior Assessment Tool (SIBAT) • d. Sustained response (Onset of Clinical Response) defined as at least 50% reduction from baseline in MADRS total score with onset on Day 1 that is maintained through the end of the double-blind phase (Day 25) • e. Changes from baseline to Day 1 4-hours postdose, Day 2, and Day 25 for the Beck Scale for Suicidal Ideation (BSS) • f. Changes from baseline to Day 1 4-hours postdose and Day 25 for the Beck Hopelessness Scale
Sustained response is defined as at least 50% reduction from baseline in MADRS total score with onset on Day 1: 4 hours postdose that is maintained through the end of the double-blind phase (Day 25). Four subjects in the esketamine 84 mg group and 2 subjects in the placebo group had sustained response throughout the double-blind phase.

[4] = tested on: subjects with MDD at imminent risk for suicide; assay: MADRS total score, study […]2001; type: in vivo, human; conditions: ITT analysis set; for MADRS total score change, Diff. of LS Means (SE) minus placebo: ANCOVA LOCF
Excerpt: Primary efficacy variable/Primary Time point: Change from baseline (Day 1, predose) to Day 1, 4-hours postdose in MADRS total score. The MADRS consists of 10 items that cover all of the core depressive symptoms, with each item scoring from 0 (item is not present or is normal) to 6 (severe or continuous presence of the symptom). A higher score represents a more severe condition.
The primary efficacy endpoint is the change in MADRS total score from baseline to Day 1: 4-hours postdose. MADRS total scores range from 0 to 60. […] As this is a phase 2a proof-of-concept study, statistical significance is based on a two-sided alpha level of 0.20. All p-values presented in this document are two-sided.

[5] = adverse events, follow up phase, safety (FU) analysis set
[6] = double-blind phase, safety analysis set
[7] = serious adverse events, follow up phase, safety (FU) analysis set
[8] = treatment-emergent serious adverse events, double-blind phase, safety analysis set
[9] = Baseline(DB), predose Day 1, ITT analysis set
[10] = Day 1(DB): 4H, LOCF, ITT analysis set
[11] = Day 2(DB), LOCF, ITT analysis set
[12] = End Point(DB), LOCF, ITT analysis set

`CN[C@]1(c2ccccc2Cl)CCCCC1=O` [Esketamine 84 mg] was tested, and the Flank pain [1, 5] was 1 (3.7%) no. subjects (%), the Folliculitis [1, 5] was 0 no. subjects (%) and the Gastrointestinal disorders [1, 5] was 6 (22.2%) no. subjects (%). For the same compound, the Headache [1, 5] was 2 (7.4%) no. subjects (%), the Immune system disorders [1, 5] was 0 no. subjects (%) and the Infections and infestations [1, 5] was 3 (11.1%) no. subjects (%). For the same compound, the Influenza [1, 5] was 0 no. subjects (%), the “Injury, poisoning and procedural complications” value [1, 5] was 2 (7.4%) no. subjects (%) and the Insomnia [1, 5] was 3 (11.1%) no. subjects (%). For the same compound, the Intentional self-injury [1, 5] was 1 (3.7%) no. subjects (%), the Loss of consciousness [1, 5] was 1 (3.7%) no. subjects (%) and the “Meniere's disease” value [1, 5] was 0 no. subjects (%). For the same compound, the “Metabolism and nutrition disorders” value [1, 5] was 0 no. subjects (%), the Migraine [1, 5] was 1 (3.7%) no. subjects (%) and the “Musculoskeletal and connective tissue disorders” value [1, 5] was 2 (7.4%) no. subjects (%). For the same compound, the Musculoskeletal chest pain [1, 5] was 1 (3.7%) no. subjects (%), the Musculoskeletal pain [1, 5] was 1 (3.7%) no. subjects (%) and the Nasal congestion [1, 5] was 1 (3.7%) no. subjects (%). The Nasopharyngitis [1, 5] was 1 (3.7%) no. subjects (%), the Nausea [1, 5] was 0 no. subjects (%) and the Neck pain [1, 5] was 1 (3.7%) no. subjects (%). For the same compound, the Nervous system disorders [1, 5] was 6 (22.2%) no. subjects (%), the Night sweats [1, 5] was 1 (3.7%) no. subjects (%) and the Panic reaction [1, 5] was 0 no. subjects (%). For the same compound, the Pelvic pain [1, 5] was 1 (3.7%) no. subjects (%), the Pharyngitis [1, 5] was 2 (7.4%) no. subjects (%) and the Polydipsia [1, 5] was 0 no. subjects (%). For the same compound, the Procedural pain [1, 5] was 0 no. subjects (%), the Psychiatric disorders [1, 5] was 5 (18.5%) no. subjects (%) and the Rash [1, 5] was 0 no. subjects (%). For the same compound, the “Renal and urinary disorders” value [1, 5] was 0 no. subjects (%), the Renal failure [1, 5] was 0 no. subjects (%) and the “Reproductive system and breast disorders” value [1, 5] was 1 (3.7%) no. subjects (%). For the same compound, the “Respiratory, thoracic and mediastinal disorders” value [1, 5] was 2 (7.4%) no. subjects (%), the Restlessness [1, 5] was 1 (3.7%) no. subjects (%) and the Road traffic accident [1, 5] was 1 (3.7%) no. subjects (%). For the same compound, the Sedation [1, 5] was 1 (3.7%) no. subjects (%), the Self-injurious ideation [1, 5] was 0 no. subjects (%) and the Sexual dysfunction [1, 5] was 0 no. subjects (%). The “Skin and subcutaneous tissue disorders” value [1, 5] was 1 (3.7%) no. subjects (%), the Somnolence [1, 5] was 0 no. subjects (%) and the Suicidal ideation [1, 5] was 1 (3.7%) no. subjects (%). The Suicide attempt [1, 5] was 0 no. subjects (%), the Tooth impacted [1, 5] was 0 no. subjects (%) and the Toothache [1, 5] was 0 no. subjects (%). The “Total no. subjects with adverse events” value [1, 5] was 13 (48.1%) no. subjects (%), the Tremor [1, 5] was 2 (7.4%) no. subjects (%) and the “Upper respiratory tract infection” value [1, 5] was 1 (3.7%) no. subjects (%). For the same compound, the “Viral upper respiratory tract infection” value [1, 5] was 0 no. subjects (%), the Vomiting [1, 5] was 1 (3.7%) no. subjects (%) and the Vulvovaginal mycotic infection [1, 5] was 1 (3.7%) no. subjects (%). For the same compound, the “1 or more serious TEAE” value [1, 6] was 4 (11.4%) no. subjects (%), the “TEAE (total no. subjects with TEAE)” value [1, 6] was 33 (94.3%) no. subjects (%) and the “TEAE leading to death” value [1, 6] was 0 no. subjects (%). For the same compound, the “TEAE leading to drug withdrawn” value [1, 6] was 5 (14.3%) no. subjects (%), the “Possibly related TEAE” value ([1]; double-blind phase, safety analysis set, relationship possible, probable, very likely) was 29 (82.9%) no. subjects (%) and the Cellulitis [1, 7] was 0 no. subjects (%). For the same compound, the Infections and infestations [1, 7] was 0 no. subjects (%), the Psychiatric disorders [1, 7] was 1 (3.7%) no. subjects (%) and the Suicidal ideation [1, 7] was 1 (3.7%) no. subjects (%). For the same compound, the Suicide attempt [1, 7] was 0 no. subjects (%), the “Total no. subjects with a serious adverse event” value [1, 7] was 1 (3.7%) no. subjects (%) and the Agitation [1, 8] was 1 (2.9%) no. subjects (%). The Depressive symptom [1, 8] was 1 (2.9%) no. subjects (%), the Psychiatric disorders [1, 8] was 4 (11.4%) no. subjects (%) and the Suicidal ideation [1, 8] was 2 (5.7%) no. subjects (%). The “BSS total score, Mean (SD)” value [2, 9] was 24.0 (5.45), the “BSS total score, Median (Range)” value [2, 9] was 25.0 (8; 33) and the “BSS total score change, Diff. of LS Means (SE) minus placebo” value ([2]; Day 1(DB): 4H) was −2.3 (2.29). For the same compound, the “BSS total score change from baseline, Mean (SD)” value [2, 10] was −10.2 (9.74), the “BSS total score change from baseline, Median (Range)” value [2, 10] was −8.0 (−33; 8) and the “BSS total score, Median (Range)” value [2, 10] was 16.5 (0; 31). The “BSS total score change, Diff. of LS Means (SE) minus placebo” value ([2]; Day 2(DB)) was −1.9 (2.30), the “BSS total score, Mean (SD)” value [2, 11] was 11.1 (10.12) and the “BSS total score, Median (Range)” value [2, 11] was 13.0 (0; 34). The “BSS total score change, Diff. of LS Means (SE) minus placebo” value ([2]; End Point(DB)) was −1.7 (2.15), the “BSS total score change from baseline, Median (Range)” value [2, 12] was −21.0 (−33; 8) and the “BSS total score, Mean (SD)” value [2, 12] was 4.7 (9.03). For the same compound, the “BSS total score, Median (Range)” value [2, 12] was 0.0 (0; 34), the “Day 25 sustained response based on MADRS total score: No” value [3] was 30 (88.2%) subjects (%) and the “Day 25 sustained response based on MADRS total score: Yes” value [3] was 4 (118%) subjects (%). The “MADRS total score, Mean (SD)” value ([4]; Baseline(DB), predose Day 1) was 38.5 (6.17), the “MADRS total score, Median (Range)” value ([4]; Baseline(DB), predose Day 1) was 38.0 (27; 49) and the “MADRS total score change, Diff. of LS Means (SE) minus placebo” value ([4]; Day 1(DB): 4H) was −5.3 (2.10). For the same compound, the “MADRS total score change from baseline, Mean (SD)” value (from here on “MADRS total score change … (SD)”) ([4]; Day 1(DB): 4H, LOCF) was −13.4 (9.03), the “MADRS total score change from baseline, Median (Range)” value (“MADRS total score change … (Range)” below) ([4]; Day 1(DB): 4H, LOCF) was −14.0 (−32; 1) and the “MADRS total score, Median (Range)” value ([4]; Day 1(DB): 4H, LOCF) was 23.0 (7; 48). The “MADRS total score change, Diff. of LS Means (SE) minus placebo” value ([4]; Day 2(DB)) was −7.2 (2.85), the “MADRS total score change … (SD)” value ([4]; Day 2(DB), LOCF) was −19.3 (12.02) and the “MADRS total score change … (Range)” value ([4]; Day 2(DB), LOCF) was −19.0 (−41; 1). For the same compound, the “MADRS total score, Median (Range)” value ([4]; Day 2(DB), LOCF) was 18.0 (3; 42), the “MADRS total score change, Diff. of LS Means (SE) minus placebo” value ([4]; End Point(DB)) was −4.5 (3.14) and the “MADRS total score change … (SD)” value ([4]; End Point(DB), LOCF) was −26.4 (14.52). The “MADRS total score change … (Range)” value ([4]; End Point(DB), LOCF) was −25.0 (−46; 13) and the “MADRS total score, Median (Range)” value ([4]; End Point(DB), LOCF) was 8.0 (0; 44).
